In ChEMBL document CHEMBL6109104, “Synthesis and antibacterial evaluations of novel vancomycin analogues targeting bacteria membrane to combat Gram-negative infections” (Eur J Med Chem, 2025) one finds Activity and MIC data, which are given here for eleven molecules.

Structures are written as SMILES. Converted amounts (≈) assume the structure as drawn. The source made the active and inactive calls. No cut-off for these calls is given here. Bounds are passed on as bounds.

Data set [1] relates to Acinetobacter baumannii. As to the kind of experiment: Antibacterial activity against Acinetobacter baumannii ATCC17978 infected in neutropenic thigh infection Kunming mouse model assessed as reduction in bacterial load in thigh at 20 mg/kg, sc pretreated with bacteria for 2 hrs followed by compound addition and measured after 16 hrs. Format: functional, organism-based.
Data set [2] deals with Escherichia coli. Description: Antibacterial activity against Escherichia coli ATCC25922 incubated for 16 to 18 hrs by muller hinton broth based microplate reader analysis. As to conditions: time 16-18 hrs. The format is functional.
In data set [3] the test system is Acinetobacter baumannii. Description: Antibacterial activity against Acinetobacter baumannii ATCC17978 incubated for 16 to 18 hrs by muller hinton broth based microplate reader analysis. The format is functional. As to conditions: time 16-18 hrs.
Data set [4] concerns Escherichia coli. Description: Antibacterial activity against Escherichia coli ATCC35150 incubated for 16 to 18 hrs by muller hinton broth based microplate reader analysis. The format is functional. As to conditions: time 16-18 hrs.
In data set [5] the test system is Acinetobacter baumannii. Description: Antibacterial activity against Acinetobacter baumannii ATCC19606 incubated for 16 to 18 hrs by muller hinton broth based microplate reader analysis. Format: functional. As to conditions: time 16-18 hrs.
Data set [6] deals with HEK-293T. Description: Cytotoxicity against HEK293T cells at 0.5 uM incubated for 72 hrs by MTT assay relative to control. As to conditions: human. The format is toxicity, cell-based. In general terms: Formazan colour is commonly taken as a measure of viable cells.
In data set [7] the test system is HEK-293T. Description: Cytotoxicity against HEK293T cells at 1.0 uM incubated for 72 hrs by MTT assay relative to control. Format: toxicity, cell-based. As to conditions: human.
In data set [8] the test system is Staphylococcus aureus. Description: Antibacterial activity vancomycin-intermediate resistant Staphylococcus aureus incubated for 16 to 18 hrs by muller hinton broth based microplate reader analysis. Format: functional. As to conditions: time 16-18 hrs.
The test system of data set [9] is Acinetobacter baumannii. Description: Antibacterial activity against Acinetobacter baumannii ATCC17978 infected in neutropenic thigh infection Kunming mouse model assessed as reduction in bacterial load in thigh at 10 to 20 mg/kg, sc pretreated with bacteria for 2 hrs followed by compound addition and measured after 16 hrs. As to conditions: dose 10-20 mg/kg. Format: functional, organism-based.

For data set [10], the system named is Acinetobacter baumannii. Description: Antibacterial activity against Acinetobacter baumannii ATCC17978 assessed as bactericidal rate by measuring bacterial count at 4 times MIC incubated for 4 hrs by muller-hinton agar based time-kill kinetics assay relative to control. The format is functional.
Data set [11] deals with Acinetobacter baumannii. As to the kind of experiment: Antibacterial activity against Acinetobacter baumannii ATCC17978 assessed as bactericidal rate by measuring bacterial count incubated for 6 hrs by muller-hinton agar based time-kill kinetics assay. Format: functional, organism-based.
In data set [12] the test system is Acinetobacter baumannii. As to the kind of experiment: Antibacterial activity against Acinetobacter baumannii ATCC17978 incubated for 12 hrs and measured after 20 passages. The format is functional, organism-based.
Data set [13] deals with Staphylococcus aureus. Description: Antibacterial activity against methicillin-resistant Staphylococcus aureus USA300 incubated for 16 to 18 hrs by muller hinton broth based microplate reader analysis. Format: functional. As to conditions: time 16-18 hrs.
Data set [14] is described as follows: Hemolytic activity in sheep RBC at 64 ug/ml incubated for 1 hrs by absorbance based analysis. Format: toxicity, cell-based, Ovis aries. As to conditions: erythrocyte, dose 64 µg/ml.
In data set [15] the test system is Cell membrane. Description: Disruption of cell membrane in Acinetobacter baumannii ATCC17978 assessed as increase in protein leakage incubated for 4 hrs by BCA assay.
A short description of data set [16]: Toxicity in Kunming mouse infected with Acinetobacter baumannii ATCC17978 assessed as changed in body weight at 10 to 20 mg/kg. As to conditions: in vivo, dose 10-20 mg/kg. The format is organism-based.
Data set [17] concerns HEK-293T. As to the kind of experiment: Cytotoxicity against HEK293T cells at 64 ug/ml incubated for 72 hrs by MTT assay. Format: toxicity, cell-based. As to conditions: human, dose 64 µg/ml.
Data set [18] concerns Cell membrane. As to the kind of experiment: Induction of cell membrane disruption in Acinetobacter baumannii ATCC17978 assessed as increase in ROS level incubated for 30 mins by DCFH-DA probe based microplate reader analysis.
For data set [19], the system named is Cell membrane. As to the kind of experiment: Induction of cytoplasmic membrane permeabilization in Acinetobacter baumannii ATCC17978 assessed as increase in fluorescence intensity at 16 times MIC incubated for 10 mins by SYTOX green assay.
The subject of data set [20] is Acinetobacter baumannii. Description: Antibacterial activity against Acinetobacter baumannii ATCC17978 assessed as bactericidal rate by measuring bacterial count at 8 times MIC incubated for 4 hrs by muller-hinton agar based time-kill kinetics assay. The format is functional, organism-based.
Data set [21] has as its system Cell membrane. Description: Disruption of cell membrane in Acinetobacter baumannii ATCC17978 assessed as increase in DNA leakage incubated for 4 hrs by microspectrophotometer analysis.
The test system of data set [22] is Acinetobacter baumannii. Description: Antibacterial activity against Acinetobacter baumannii ATCC17978 infected in neutropenic thigh infection Kunming mouse model assessed as reduction in bacterial survival at 10 mg/kg, sc pretreated with bacteria for 2 hrs followed by compound addition and measured after 16 hrs. The format is functional, organism-based.

Regarding `CN[C@H](CC(C)C)C(=O)N[C@H]1C(=O)N[C@@H](CC(N)=O)C(=O)N[C@H]2C(=O)N[C@H]3C(=O)N[C@H](C(=O)N[C@H](C(=O)O)c4cc(O)cc(O)c4-c4cc3ccc4O)[C@H](O)c3ccc(c(Cl)c3)Oc3cc2cc(c3O[C@@H]2O[C@H](CO)[C@@H](O)[C@H](O)[C@H]2O[C@H]2C[C@](C)(N)[C@H](O)[C@H](C)O2)Oc2ccc(cc2Cl)[C@H]1O` [VANCOMYCIN], the outcome in data set [1] was inactive. Also, the MIC in data set [2], in [3], in [4] and in [5] was above 128 µg/mL throughout.
Consider `COc1cccc2c1C(=O)c1c(O)c3c(c(O)c1C2=O)C[C@@](O)(C(=O)CO)C[C@@H]3O[C@H]1C[C@H](N)[C@H](O)[C@H](C)O1` [DOXORUBICIN], for which the figures for the Activity in data set [6] and in [7] were 27.3% and 85.6%, respectively.
In the case of `CCCCCCCCCCCC[N+]1(C)CCN(C(=O)[C@H]2NC(=O)[C@H]3NC(=O)[C@H](NC(=O)[C@@H]4NC(=O)[C@H](CC(N)=O)NC(=O)[C@H](NC(=O)[C@@H](CC(C)C)NC)[C@H](O)c5ccc(c(Cl)c5)Oc5cc4cc(c5O[C@@H]4O[C@H](CO)[C@@H](O)[C@H](O)[C@H]4O[C@H]4C[C@](C)(N)[C@H](O)[C@H](C)O4)Oc4ccc(cc4Cl)[C@H]3O)c3ccc(O)c(c3)-c3c(O)cc(O)cc32)CC1.[Br-]` (stereo in doubt), the MIC was found to be 8 µg/mL in data set [8]; 1 µg/mL in data set [13]; 16 µg/mL in data set [2]; 8 µg/mL in [3]; 16 µg/mL in [4]; 16 µg/mL in data set [5]. In addition, the outcome in [9], in data set [12], in data set [18] and in data set [19] was Active. Also, the Activity in [10] was 100%; in data set [11], “Dose-dependent-effect”; in data set [14], “Toxic”; in data set [15], “Dose-dependent-effect”; in data set [16], “Non-toxic”; in data set [17], “Non-toxic”. For the same molecule, in data set [21], the Activity entry is “Dose-dependent-effect”. Besides, the outcome in data set [20] was inactive.
For `CCCCCCCCCC[N+]1(C)CCN(C(=O)[C@H]2NC(=O)[C@H]3NC(=O)[C@H](NC(=O)[C@@H]4NC(=O)[C@H](CC(N)=O)NC(=O)[C@H](NC(=O)[C@@H](CC(C)C)NC)[C@H](O)c5ccc(c(Cl)c5)Oc5cc4cc(c5O[C@@H]4O[C@H](CO)[C@@H](O)[C@H](O)[C@H]4O[C@H]4C[C@](C)(N)[C@H](O)[C@H](C)O4)Oc4ccc(cc4Cl)[C@H]3O)c3ccc(O)c(c3)-c3c(O)cc(O)cc32)CC1.[Br-]` (stereo in doubt), the MIC amounted to 1 µg/mL in data set [8]; 1 µg/mL in data set [13]; 16 µg/mL in data set [2]; 32 µg/mL in data set [3]; 16 µg/mL in [4]; 32 µg/mL in [5].
Regarding `CCCCCCCCCCCC[N+]1(C)CCN(C(=O)c2ccc(CN[C@@]3(C)C[C@H](O[C@H]4[C@H](Oc5c6cc7cc5Oc5ccc(cc5Cl)[C@@H](O)[C@@H](NC(=O)[C@@H](CC(C)C)NC)C(=O)N[C@@H](CC(N)=O)C(=O)N[C@H]7C(=O)N[C@H]5C(=O)N[C@H](C(=O)N[C@H](C(=O)O)c7cc(O)cc(O)c7-c7cc5ccc7O)[C@H](O)c5ccc(c(Cl)c5)O6)O[C@H](CO)[C@@H](O)[C@@H]4O)O[C@@H](C)[C@H]3O)cc2)CC1.[Br-]`, the MIC in data set [8] was 64 µg/mL; in data set [13], 2 µg/mL; in [2], above 128 µg/mL; in [3] it was 32 µg/mL; in data set [4] it was above 128 µg/mL; in data set [5], 16 µg/mL.
Take `O=C(O)c1cn(C2CC2)c2cc(N3CCNCC3)c(F)cc2c1=O` [CIPROFLOXACIN]: the minimal inhibitory concentration (MIC) in data set [8] came out at 1 µg/mL (≈ 3.02 µM); in [13], 0.25 µg/mL (≈ 0.754 µM); in [3] it was 0.5 µg/mL (≈ 1.51 µM); in data set [5] it was 1 µg/mL (≈ 3.02 µM). The outcome in data set [22] and in data set [20] was Active.
On to `CCCCCCCCCCCCCCCC[N+]1(C)CCN(C(=O)[C@H]2NC(=O)[C@H]3NC(=O)[C@H](NC(=O)[C@@H]4NC(=O)[C@H](CC(N)=O)NC(=O)[C@H](NC(=O)[C@@H](CC(C)C)NC)[C@H](O)c5ccc(c(Cl)c5)Oc5cc4cc(c5O[C@@H]4O[C@H](CO)[C@@H](O)[C@H](O)[C@H]4O[C@H]4C[C@](C)(N)[C@H](O)[C@H](C)O4)Oc4ccc(cc4Cl)[C@H]3O)c3ccc(O)c(c3)-c3c(O)cc(O)cc32)CC1.[Br-]` (stereo in doubt), for which the MIC was above 128 µg/mL in data set [8]; 8 µg/mL in data set [13]; 64 µg/mL in [2]; above 128 µg/mL in data set [3]; above 128 µg/mL in data set [4]; above 128 µg/mL in data set [5].
For the molecule `CN[C@H](CC(C)C)C(=O)N[C@H]1C(=O)N[C@@H](CC(N)=O)C(=O)N[C@H]2C(=O)N[C@H]3C(=O)N[C@H](C(=O)N[C@H](C(=O)O)c4cc(O)cc(O)c4-c4cc3ccc4O)[C@H](O)c3ccc(c(Cl)c3)Oc3cc2cc(c3O[C@@H]2O[C@H](CO)[C@@H](O)[C@H](O)[C@H]2O[C@H]2C[C@](C)(NC(=O)CCCCCCCCCCC[n+]3cccc(C(C)=O)c3)[C@H](O)[C@H](C)O2)Oc2ccc(cc2Cl)[C@H]1O.[Br-]`, the MIC in [8] was 64 µg/mL; in data set [13], 4 µg/mL; in data set [2] it was above 128 µg/mL; in data set [3], above 128 µg/mL; in data set [4] it was above 128 µg/mL; in [5], above 128 µg/mL.
Take `CN[C@H](CC(C)C)C(=O)N[C@H]1C(=O)N[C@@H](CC(N)=O)C(=O)N[C@H]2C(=O)N[C@H]3C(=O)N[C@H](C(=O)N[C@H](C(=O)O)c4cc(O)cc(O)c4-c4cc3ccc4O)[C@H](O)c3ccc(c(Cl)c3)Oc3cc2cc(c3O[C@@H]2O[C@H](CO)[C@@H](O)[C@H](O)[C@H]2O[C@H]2C[C@](C)(NC(=O)CCCCCCCCCCC[n+]3cccc(Br)c3)[C@H](O)[C@H](C)O2)Oc2ccc(cc2Cl)[C@H]1O.[Br-]`: the MIC in [8] is 32 µg/mL; in data set [13] it was 4 µg/mL; in [2], above 128 µg/mL; in [3] it was above 128 µg/mL; in [4], above 128 µg/mL; in data set [5], above 128 µg/mL.
As to `CCCCCCCCCC[N+]1(C)CCN(C(=O)c2ccc(CN[C@@]3(C)C[C@H](O[C@H]4[C@H](Oc5c6cc7cc5Oc5ccc(cc5Cl)[C@@H](O)[C@@H](NC(=O)[C@@H](CC(C)C)NC)C(=O)N[C@@H](CC(N)=O)C(=O)N[C@H]7C(=O)N[C@H]5C(=O)N[C@H](C(=O)N[C@H](C(=O)O)c7cc(O)cc(O)c7-c7cc5ccc7O)[C@H](O)c5ccc(c(Cl)c5)O6)O[C@H](CO)[C@@H](O)[C@@H]4O)O[C@@H](C)[C@H]3O)cc2)CC1.[Br-]`, the MIC in data set [8] is 64 µg/mL; in [13] it was 1 µg/mL; in data set [2], 64 µg/mL; in data set [3], above 128 µg/mL; in data set [4] it was 64 µg/mL; in [5], 64 µg/mL.
For `CN[C@H](CC(C)C)C(=O)N[C@H]1C(=O)N[C@@H](CC(N)=O)C(=O)N[C@H]2C(=O)N[C@H]3C(=O)N[C@H](C(=O)N[C@H](C(=O)O)c4cc(O)cc(O)c4-c4cc3ccc4O)[C@H](O)c3ccc(c(Cl)c3)Oc3cc2cc(c3O[C@@H]2O[C@H](CO)[C@@H](O)[C@H](O)[C@H]2O[C@H]2C[C@](C)(NC(=O)CCCCCCCCCCC[n+]3cccc(F)c3)[C@H](O)[C@H](C)O2)Oc2ccc(cc2Cl)[C@H]1O.[Br-]`, the minimal inhibitory concentration (MIC) in data set [8] was 64 µg/mL; in data set [13] it was 4 µg/mL; in data set [2], above 128 µg/mL; in data set [3], above 128 µg/mL; in data set [4], above 128 µg/mL; in data set [5], above 128 µg/mL.

What is called MIC is the lowest concentration that inhibits growth of the organism. A low value points to a more susceptible organism.
